# Values quoted from earlier work in patent US5891887A, “Use of [R-(Z)]-α-(methoxyimino)-α-(1-azabicyclo [2.2.2.]oct-3-yl)acetonitrile to reduce amyloid βA4 formation in alzheimer's disease” (priority 1994, dated 1999).
# Test system: m1 and/or m3 receptor subtypes
# Settings: by activation of m1 and/or m3 receptor subtypes; literature
row,Production of non-amyloidogenic APP fragments,Structure (SMILES)
1,enhance,CC(C[N+](C)(C)C)OC(N)=O (stereo not drawn) [bethanechol]
2,enhance,CCCCCCOc1nsnc1C1=CCCN(C)C1 [xanomeline]

row,Structure (SMILES),Production of non-amyloidogenic APP fragments
1,CC1OC2(CS1)CN1CCC2CC1 (stereo not drawn) [AF-102B],enhance
